From patent US20180370912A1, “COMPOUNDS AND METHODS FOR TREATING DISEASES MEDIATED BY PROTEIN DISULFIDE ISOMERASE” (Beth Israel Deaconess Medical Center, Inc., priority 2017, published 2018)
Each block holds one compound with its values, some of them ahead of it.

How the values were obtained:
PDI [1] = biological target: T1, PDI (Homo sapiens, UniProt P07237); experiment: Insulin reductase (turbidimetric) assay; format: biochemical; conditions: for selectivity for PDI among thiol isomerases: versus ERp5, ERp57, thioredoxin, concentrations 10-fold higher than IC50
T1 construct: FLAG; made in house; host or cells: Escherichia coli Origami B (DE3), pET-15b
T1 sequence (P07237 18-508): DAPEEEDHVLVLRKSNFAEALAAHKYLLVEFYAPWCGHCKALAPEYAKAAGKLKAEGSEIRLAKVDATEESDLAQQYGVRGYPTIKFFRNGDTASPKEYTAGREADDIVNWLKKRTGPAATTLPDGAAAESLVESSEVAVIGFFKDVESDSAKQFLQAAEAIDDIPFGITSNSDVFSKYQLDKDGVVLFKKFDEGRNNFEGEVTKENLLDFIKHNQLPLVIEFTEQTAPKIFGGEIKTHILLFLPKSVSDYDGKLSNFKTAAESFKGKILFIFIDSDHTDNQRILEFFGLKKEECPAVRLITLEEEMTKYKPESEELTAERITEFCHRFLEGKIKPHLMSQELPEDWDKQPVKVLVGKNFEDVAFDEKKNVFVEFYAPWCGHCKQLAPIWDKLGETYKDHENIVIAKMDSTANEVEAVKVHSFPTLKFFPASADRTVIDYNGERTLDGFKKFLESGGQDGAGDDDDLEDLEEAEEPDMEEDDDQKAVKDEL
Description: (§1) The thiol isomerase-catalyzed reduction of insulin was assayed by measuring the increase in turbidity as detected at an optical density (OD) of 650 nm using a Spectramax M3 (Molecular Devices, Sunnyvale, Calif.). The validation assay consisted of 175 nM of PDI in a solution containing 100 mM potassium phosphate (pH 7.4) containing 0.2 mM bovine insulin, 2 mM EDTA, and 0.3 mM DTT (all purchased from Sigma Aldrich, St. Louis, Mo.), inhibitors were used at the concentrations indicated. The reaction was performed at 25° C. for one hour and thirty minutes. For assays of thiol isomerase selectivity, 11 nM PDI, ERp57 or Thioredoxin, or 33 nM ERpS were assayed in similar buffer conditions as described above and inhibitors were used at the indicated concentration. The reaction was performed at 37° C. for forty-five minutes. For assays of isolated domains studies, 400 nM protein was used, except for a, a′ and ab, in which 800 nM protein was used. The assay was performed in similar buffer conditions as described above. Bepristat 2a and N-(2,4-Dimethoxyphenyl)-N-(1-oxo-2-propyn-1-yl)-2-(2-thienyl)glycyl-glycine ethyl ester (PACMA-31) were used at a final concentration of 15 μM in these studies.
Reversibility studies were performed by incubating 20 μM PDI with 6 μM of bepristat 2a or 300 μM of PACMA-31. After 30 minute equilibration; the PDI-inhibitor mixture was diluted 100 fold into the above mentioned assay buffer. The reductase activity of these mixtures were compared to PDI in the presence or absence of 6 μM bepristat 2a or 0.06 μM bepristat 2a or 300 μM PACMA-31 or 3 μM PACMA-31.

PDI [2] = biological target: T1, PDI; experiment: Di-eosin-GSSG disulfide reductase assay; format: biochemical
Description: The probe di-eosin glutathione disulfide, di-eosin-GSSG, was prepared as previously described in Raturi, A., Vacratsis, P. O., Seslija, D., Lee, L. & Mutus, B., Biochem J 391, 351-357 (2005). Reductase activity of purified thiol isomerases and PDI domains was monitored in a 96-well fluorescence plate format. PDI, AGHA-PDI, ERpS, ERp57, ERp72 and PDI domains were assayed at 50 nM in the presence or absence of the indicated small molecules, peptides or cathepsin G. The assay included 100 mM potassium phosphate (pH 7.4) containing 2 mM EDTA, 5 μM DTT and 150 nM of the di-eosin GSSG probe. The increase in fluorescence was determined for 20 minutes by excitation at 520 nm and emission at 550 nm in a Synergy Biotek 4. The reduction of 150 nM di-eosin-GSSG by 5 μM DTT in the presence or absence of mentioned small molecules, peptides or proteins served as a negative control.
Michaelis Menten analysis was assayed using PDI at 20 nM and small molecules, peptides or cathepsin G at concentrations causing maximal augmentation under similar buffer conditions as described above. 8-point response curves were generated using a range of different di-eosin-GSSG concentrations (50-5000 nM). Enzyme kinetics analysis was performed using Graphpad Prism 5.0.

Washed human platelets = experiment: Platelet aggregation, light transmission aggregometry; format: cell-based; conditions: for inhibition of SFLLRN-induced platelet aggregation: 30 μM, 3 μM SFLLRN, FIG. 2d; for reversibility of inhibition of platelet aggregation after washing: platelets incubated with antagonist, washed, then stimulated with SFLLRN
Description: Platelet aggregation was performed as previously described in Jasuja, R. et al., J Clin Invest 122, 2104-2113 (2012). Briefly, platelet rich plasma (PRP) was obtained from healthy volunteers. Platelets were isolated by centrifugation at 2,000 g and resuspended in Hepes-Tyrode buffer (134 mM […], 2.9 mM KCl, 12 mM sodium bicarbonate, 20 mM HEPES, 1 mM magnesium chloride, 5 mM glucose [pH 7.3]). Washed human platelets (2.5×10^8 platelets/mL) were incubated with the indicated concentrations of bepristats and PACMA-31 at 37° C. for 20 minutes and then exposed to 3 μM PAR-1 activating peptide SFLLRN. Aggregation was measured using a Chrono-Log 680 Aggregation System.

[3] = biological target: T2, PDI domain fragments (a, a′, ab, abb′, b′xa′) (Homo sapiens, UniProt P07237); experiment: Insulin reductase assay of isolated PDI domains; format: biochemical; conditions: FIG. 4a
T2 construct: a (residues 1-117), a′ (residues 342-462), ab (residues 1-218), abb′ (residues 1-331), or b′xa′ (residues 219-462); His; made in house; host or cells: Escherichia coli Origami B (DE3), pET-15b
Description: as §1

[4] = biological target: T3, PDI domain fragments (a, a′, ab, abb′, b′xa′) (Homo sapiens, UniProt P07237); experiment: Insulin reductase assay of isolated PDI domains; format: biochemical; conditions: FIG. 4a; remark: listed apart in the source
T3 construct: a (residues 1-117), a′ (residues 342-462), ab (residues 1-218), abb′ (residues 1-331), or b′xa′ (residues 219-462); His; made in house; host or cells: Escherichia coli Origami B (DE3), pET-15b
T3 sequence (P07237 18-235): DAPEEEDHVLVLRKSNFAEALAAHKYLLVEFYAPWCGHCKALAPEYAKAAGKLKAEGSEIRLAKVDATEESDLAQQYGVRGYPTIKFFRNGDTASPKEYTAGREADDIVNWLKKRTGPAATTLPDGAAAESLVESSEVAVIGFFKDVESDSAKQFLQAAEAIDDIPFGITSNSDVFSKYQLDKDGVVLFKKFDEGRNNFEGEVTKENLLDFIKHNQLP
Description: as §1

[5] = biological target: T4, PDI domain fragments (a, a′, ab, abb′, b′xa′) (Homo sapiens, UniProt P07237); experiment: Insulin reductase assay of isolated PDI domains; format: biochemical; conditions: FIG. 4a; remark: listed apart in the source
T4 construct: a (residues 1-117), a′ (residues 342-462), ab (residues 1-218), abb′ (residues 1-331), or b′xa′ (residues 219-462); His; made in house; host or cells: Escherichia coli Origami B (DE3), pET-15b
T4 sequence (P07237 18-348): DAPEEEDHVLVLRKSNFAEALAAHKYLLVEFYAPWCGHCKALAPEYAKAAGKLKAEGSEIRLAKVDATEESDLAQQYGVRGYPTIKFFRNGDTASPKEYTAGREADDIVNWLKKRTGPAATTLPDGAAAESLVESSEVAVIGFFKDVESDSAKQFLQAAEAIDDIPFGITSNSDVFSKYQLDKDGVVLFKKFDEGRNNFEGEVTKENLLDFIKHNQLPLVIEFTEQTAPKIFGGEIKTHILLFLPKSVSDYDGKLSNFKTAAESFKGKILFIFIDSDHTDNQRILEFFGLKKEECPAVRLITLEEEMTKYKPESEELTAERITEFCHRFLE
Description: as §1

PDI [6] = biological target: T1, PDI; experiment: ANS fluorescence; format: binding; conditions: 100 μM inhibitor, 50 μM ANS, FIG. 4c
Description: The binding of 1-Anilinonaphthalene-8-Sulfonic Acid (ANS) to full length PDI and the different domains of PDI was assessed by incubating 5 μM of protein in the presence or absence of 100 μM of the indicated inhibitors in 175 μL of TBS at 37° C. for 1 hour. Subsequently, 50 μM of ANS was added and the mixture was incubated in the dark at 25° C. for 20 minutes. Fluorescence spectrum (Ex: 370 nm, Em: 400-700 nm) was measured in a 384-well plate. The experiment was performed in triplicate.

increase in ANS fluorescence upon incubation with PDI (PDI [6]): failed to block ANS fluorescence
SMILES: C#CC(=O)N(c1ccc(OC)cc1OC)C(C(=O)NCC(=O)OCC)c1cccs1 (stereo not shown) [PACMA-31, N-(2,4-Dimethoxyphenyl)-N-(1-oxo-2-propyn-1-yl)-2-(2-thienyl)glycyl-glycine ethyl ester, reference compound]
selectivity for PDI among thiol isomerases (PDI [1]): not entirely selective for PDI among thiol isomerases
cleavage of di-eosin-GSSG probe by PDI (reductase activity at catalytic cysteines) (PDI [2]): blocked PDI-mediated cleavage of di-eosin-GSSG
inhibition of SFLLRN-induced platelet aggregation (Washed human platelets): inhibited platelet aggregation
reversibility of inhibition of platelet aggregation after washing (Washed human platelets): irreversibly inhibited
insulin reductase activity of b′xa′ domains [3]: inhibited reductase activity of all PDI fragments
insulin reductase activity of isolated a domain [3]: inhibited reductase activity of all PDI fragments
insulin reductase activity of isolated a′ domain [3]: inhibited reductase activity of all PDI fragments
insulin reductase activity of ab domain [4]: inhibited reductase activity of all PDI fragments
insulin reductase activity of abb′ domains [5]: inhibited reductase activity of all PDI fragments

SMILES: CCOC(=O)c1c(CNCCN(CC)CC)n(-c2ccccc2)c2cc(Br)c(O)cc12 [bepristat 2a]
reversibility of PDI inhibition in the insulin reductase assay (PDI [1]; 100-fold dilution of 6 μM bepristat 2a or 300 μM PACMA-31, FIG. 9): readily reversed by dilution to a subinhibitory concentration
inhibitory activity in the insulin turbidimetric assay compared with quercetin-3-rutinoside, PACMA-31 and bacitracin (PDI [1]; FIG. 1e): more potent inhibitory activity
IC50 (PDI [1]; insulin reductase assay, FIG. 1b): ~1200 nM
selectivity for PDI among thiol isomerases (PDI [1]): selective among vascular thiol isomerases
cleavage of di-eosin-GSSG probe by PDI (reductase activity at catalytic cysteines) (PDI [2]): enhanced cleavage of the di-eosin-GSSG probe by PDI
apparent kcat (PDI [2]; Michaelis-Menten analysis, incubation with compound, 1135 min^−1 without bepristats): 33.25 s⁻¹
fluorescence of di-eosin-GSSG in the absence of PDI (PDI [2]; no PDI): did not affect
inhibition of SFLLRN-induced platelet aggregation (Washed human platelets): inhibited platelet aggregation
reversibility of inhibition of platelet aggregation after washing (Washed human platelets): restored following washing
insulin reductase activity of b′xa′ domains [3]: blocked activity
insulin reductase activity of isolated a domain [3]: did not have activity
insulin reductase activity of isolated a′ domain [3]: did not have activity
insulin reductase activity of ab domain [4]: did not have activity
insulin reductase activity of abb′ domains [5]: blocked activity
increase in ANS fluorescence upon incubation with PDI (PDI [6]): interfered with the increase in ANS fluorescence
